From ChEMBL document CHEMBL2396587, “Synthesis, in vitro, and in cell studies of a new series of [indoline-3,2'-thiazolidine]-based p53 modulators” (J Med Chem, 2013)
Calls of active or inactive are those of the source. No cut-off for these calls is given here.

Legend:
[1] = Cytotoxicity against human Calu cells after 24 hrs by MTT assay; format: functional, cell-based
HepG2 = assay: cells; conditions: Homo sapiens, HepG2, 24 h
Description: Cytotoxicity against human HepG2 cells after 24 hrs by MTT assay

U-937 = assay: Cytotoxicity against human U937 cells after 24 hrs by MTT assay; format: functional, cell-based; conditions: U-937, 24 h
PC-3 = assay: cells; conditions: Homo sapiens, PC-3, 24 h
Description: Cytotoxicity against human PC3 cells after 24 hrs by MTT assay

[2] = Cytotoxicity against human HGF cells after 24 hrs by MTT assay; format: cell-based
HT-29 = assay: Cytotoxicity against human HT-29 cells after 24 hrs by MTT assay; format: functional, cell-based; conditions: HT-29, 24 h
MCF7 [3] = assay: cells; conditions: Homo sapiens, MCF7, 24 h
Description: Cytotoxicity against human MCF7 cells after 24 hrs by MTT assay

[4] = Ratio of Doxorubicin IC50 to compound IC50 against human Calu cells; format: functional
[5] = molecular target: T1, Tumour suppressor p53/oncoprotein Mdm2 (Homo sapiens) (UniProt P04637+Q00987); assay: Inhibition of MDM2-p53 interaction in human MCF7 cells after 72 hrs by immunoprecipitation assay; format: cell-based
T1 sequence (P04637 whole entry, looked up): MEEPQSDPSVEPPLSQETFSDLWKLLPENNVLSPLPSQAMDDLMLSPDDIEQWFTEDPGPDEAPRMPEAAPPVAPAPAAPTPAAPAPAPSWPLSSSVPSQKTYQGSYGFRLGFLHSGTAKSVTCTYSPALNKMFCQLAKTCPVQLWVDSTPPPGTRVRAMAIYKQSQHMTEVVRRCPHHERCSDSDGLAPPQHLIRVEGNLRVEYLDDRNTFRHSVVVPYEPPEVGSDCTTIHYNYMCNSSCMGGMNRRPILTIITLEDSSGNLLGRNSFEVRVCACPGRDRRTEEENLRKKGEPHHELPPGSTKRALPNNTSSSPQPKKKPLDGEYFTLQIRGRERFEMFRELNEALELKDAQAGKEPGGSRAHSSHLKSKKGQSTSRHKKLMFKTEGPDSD
T1 sequence (Q00987 whole entry, looked up): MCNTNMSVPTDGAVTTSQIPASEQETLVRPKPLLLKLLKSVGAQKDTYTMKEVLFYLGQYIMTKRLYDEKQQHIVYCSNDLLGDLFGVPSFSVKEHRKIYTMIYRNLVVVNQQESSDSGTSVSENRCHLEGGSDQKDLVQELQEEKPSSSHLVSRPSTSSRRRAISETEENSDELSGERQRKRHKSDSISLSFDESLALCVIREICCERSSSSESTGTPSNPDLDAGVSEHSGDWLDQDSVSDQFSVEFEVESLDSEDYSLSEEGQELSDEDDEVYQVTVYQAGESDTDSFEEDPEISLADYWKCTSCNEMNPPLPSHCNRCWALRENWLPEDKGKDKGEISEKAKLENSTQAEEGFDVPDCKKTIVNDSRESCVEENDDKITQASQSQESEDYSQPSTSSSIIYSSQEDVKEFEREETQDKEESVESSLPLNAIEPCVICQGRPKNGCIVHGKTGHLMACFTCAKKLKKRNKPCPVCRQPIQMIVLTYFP

MCF7 [6] = assay: Induction of apoptosis in human MCF7 cells assessed as increase in p27 expression level at 50 nM by Western blotting analysis; format: functional, cell-based; conditions: TDE = time-dependent effect
MCF7 [7] = assay: Induction of apoptosis in human MCF7 cells assessed as early apoptotic cells at 50 nM after 72 hrs by annexin V-FITC/propidium iodide staining based FACS flow cytometry (reference value: 4 %); format: functional
[8] = molecular target: T1, Tumour suppressor p53/oncoprotein Mdm2 (Homo sapiens); assay: Inhibition of MDM2-p53 interaction in human MCF7 cells assessed as MDM2 accumulation at 50 nM after 24 to 72 hrs by Western blot analysis; format: cell-based
MCF7 [9] = assay: Induction of apoptosis in human MCF7 cells assessed as increase in p53 expression level at 50 nM by Western blotting analysis; format: functional, cell-based; conditions: TDE = time-dependent effect
MCF7 [10] = assay: Induction of apoptosis in human MCF7 cells assessed as increase in Bcl-xS expression level at 50 nM after 24 to 72 hrs by Western blotting analysis; format: functional, cell-based
MCF7 [11] = assay: Cell cycle arrest in human MCF7 cells assessed as accumulation at G1 phase at 50 nM after 24 to 72 hrs by propidium iodide staining-based FACS analysis relative to control; format: functional
MCF7 [12] = assay: Induction of apoptosis in human MCF7 cells assessed as cytochrome C release at 50 nM after 72 hrs by Western blotting analysis; format: functional, cell-based
[13] = Cytotoxicity against human C643 cells after 24 hrs by MTT assay; conditions: C643, 24 h
[14] = molecular target: T1, Tumour suppressor p53/oncoprotein Mdm2 (Homo sapiens); assay: Inhibition of MDM2-p53 interaction in human MCF7 cells assessed as reduction in p53 level bound to MDM2 after 24 to 48 hrs by immunoprecipitation assay; format: cell-based
MCF7 [15] = assay: Cell cycle arrest in human MCF7 cells assessed as accumulation at S phase at 50 nM after 24 to 72 hrs by propidium iodide staining-based FACS analysis relative to control; format: functional
MCF7 [16] = assay: Cell cycle arrest in human MCF7 cells assessed as accumulation at G1 phase at 50 to 5000 nM after 24 hrs by propidium iodide staining-based FACS analysis relative to control; format: functional
MCF7 [17] = assay: Cell cycle arrest in human MCF7 cells assessed as accumulation at G2M phase at 50 to 5000 nM after 24 hrs by propidium iodide staining-based FACS analysis relative to control; format: functional
MCF7 [18] = assay: Cell cycle arrest in human MCF7 cells assessed as accumulation at G2M phase at 50 nM after 24 to 72 hrs by propidium iodide staining-based FACS analysis relative to control; format: functional
MCF7 [19] = assay: Induction of apoptosis in human MCF7 cells assessed as increase in p21 expression level at 50 nM by Western blotting analysis; format: functional, cell-based; conditions: TDE = time-dependent effect
MCF7 [20] = assay: Induction of apoptosis in human MCF7 cells assessed as early apoptotic cells at 50 nM after 48 hrs by annexin V-FITC/propidium iodide staining based FACS flow cytometry (reference value: 4 %); format: functional
MCF7 [21] = assay: Induction of apoptosis in human MCF7 cells assessed as accumulation of caspase-3 cleavage product at 50 nM after 24 to 72 hrs by Western blotting analysis
[22] = molecular target: T1, Tumour suppressor p53/oncoprotein Mdm2 (Homo sapiens); assay: Inhibition of MDM2-p53 interaction in human MCF7 cells assessed as p53 accumulation at 50 nM after 24 to 72 hrs by Western blot analysis; format: cell-based
MCF7 [23] = assay: Induction of apoptosis in human MCF7 cells assessed as accumulation at subG1 phase at 50 nM by propidium iodide staining-based FACS analysis; format: functional, cell-based; conditions: TDE = time-dependent effect
MCF7 [24] = assay: Induction of apoptosis in human MCF7 cells assessed as reduction in Bcl-xL expression level at 50 nM after 24 to 72 hrs by Western blotting analysis; format: functional, cell-based
MCF7 [25] = assay: Cell cycle arrest in human MCF7 cells assessed as accumulation at S phase at 50 to 5000 nM after 24 hrs by propidium iodide staining-based FACS analysis relative to control; format: functional

SMILES: COc1cccc2c1C(=O)c1c(O)c3c(c(O)c1C2=O)C[C@@](O)(C(=O)CO)C[C@@H]3O[C@H]1C[C@H](N)[C@H](O)[C@H](C)O1 [DOXORUBICIN]
- IC50 [1]: 1810 nM
- IC50 (HepG2): 80 nM
- IC50 (U-937): 120 nM
- IC50 (PC-3): 750 nM
- IC50 [2]: 500 nM

SMILES: CCOC(=O)[C@@H]1CS[C@]2(N1)C(=O)N(C(=O)c1ccc(Cl)cc1)c1ccc(C)cc12
- IC50 (HT-29): 230 nM
- IC50 (MCF7 [3]): 3460 nM

SMILES: CCOC(=O)[C@@H]1CS[C@@]2(C(=O)N(C)c3ccc(C)cc32)N1C(=O)c1ccc(Cl)cc1
- IC50 (HT-29): 120 nM
- IC50 (MCF7 [3]): 1230 nM

SMILES: CCOC(=O)[C@@H]1CS[C@@]2(C(=O)N(C)c3ccccc32)N1C(=O)C1CCCCC1 (mixture of isomers)
- IC50 (HT-29): 1900 nM
- IC50 (MCF7 [3]): 2300 nM

SMILES: CCOC(=O)[C@@H]1CS[C@@]2(C(=O)Nc3ccccc32)N1C(=O)c1ccc(Cl)cc1
- IC50 (HT-29): 3690 nM
- IC50 (MCF7 [3]): 2150 nM

SMILES: CCOC(=O)[C@@H]1CS[C@@]2(C(=O)Nc3ccc(Br)cc32)N1C(=O)c1ccc(Cl)cc1
- IC50 (HT-29): 110 nM
- IC50 (MCF7 [3]): 900 nM

SMILES: O=C1C2CSC3(C(=O)Nc4ccccc43)N2C(=O)N1Cc1ccc(Cl)cc1 (configuration not stated)
- IC50 (HT-29): 1600 nM
- IC50 (MCF7 [3]): 1210 nM

SMILES: CCOC(=O)C1=N[C@@]2(SC1)C(=O)N(C(=O)c1ccc(Cl)cc1)c1ccc(Br)cc12 (single isomer, unassigned)
- IC50 (HT-29): 200 nM
- IC50 (MCF7 [3]): 860 nM

SMILES: CCOC(=O)[C@@H]1CS[C@@]2(C(=O)Nc3ccc(Br)cc32)N1C(=O)C1CCCCC1 (mixture of isomers)
- IC50 (HT-29): 560 nM
- IC50 (MCF7 [3]): 220 nM

SMILES: CCOC(=O)[C@@H]1CS[C@@]2(C(=O)Nc3ccc(C)cc32)N1C(=O)c1ccc(Cl)cc1
- IC50 (HT-29): 1090 nM
- IC50 (MCF7 [3]): 2120 nM

SMILES: CCOC(=O)C1=N[C@@]2(SC1)C(=O)N(C(=O)C1CCCCC1)c1ccc(Br)cc12
- IC50 (HT-29): 850 nM

SMILES: CCOC(=O)[C@@H]1CS[C@@]2(C(=O)N(C)c3ccc(Br)cc32)N1C(=O)c1ccc(Cl)cc1
- IC50 (HT-29): 80 nM
- IC50 (MCF7 [3]): 520 nM

SMILES: CCOC(=O)[C@@H]1CS[C@@]2(C(=O)N(C)c3ccc(Br)cc32)N1C(=O)c1ccc(C)cc1
- IC50 (HT-29): 90 nM
- IC50 (MCF7 [3]): 60 nM

SMILES: CCOC(=O)[C@@H]1CS[C@@]2(C(=O)N(C)c3ccc(C)cc32)N1C(=O)C1CCCCC1 (mixture of isomers)
- IC50 (HT-29): 1100 nM
- IC50 (MCF7 [3]): 1200 nM

SMILES: CCOC(=O)[C@@H]1CS[C@@]2(C(=O)N(C)c3ccccc32)N1C(=O)c1ccc(Cl)cc1
- IC50 (HT-29): 180 nM
- IC50 (MCF7 [3]): 4520 nM

SMILES: CCOC(=O)[C@@H]1CS[C@]2(C(=O)Nc3ccc(Br)cc32)N1C(=O)c1ccc(Cl)cc1
- IC50 (HT-29): 2000 nM
- IC50 (MCF7 [3]): 3000 nM

SMILES: CCOC(=O)[C@@H]1CS[C@]2(N1)C(=O)N(C(=O)c1ccc(Cl)cc1)c1ccc(Br)cc12
- IC50 (HT-29): 20 nM
- IC50 (MCF7 [3]): 150 nM

SMILES: CCOC(=O)[C@@H]1CS[C@@]2(C(=O)Nc3ccc(Br)cc32)N1C(=O)Cc1ccc(Cl)cc1
- IC50 (HT-29): 660 nM
- IC50 (MCF7 [3]): 2900 nM

SMILES: CCOC(=O)[C@@H]1CS[C@@]2(C(=O)N(C)c3ccc(Br)cc32)N1C(=O)C1CCCCC1 (mixture of isomers)
- IC50 (HT-29): 70 nM
- Ratio IC50 [4]: 18
- inhibition [5]: inactive
- Activity (MCF7 [6]): tde
- Activity (MCF7 [7]): 12%
- IC50 [1]: 100 nM
- inhibition [8]: Active
- Activity (MCF7 [9]): tde
- Activity (MCF7 [10]): Active
- IC50 (HepG2): 140 nM
- Activity (MCF7 [11]): inactive
- Activity (MCF7 [12]): Active
- IC50 [13]: 550 nM
- inhibition [14]: Active
- Activity (MCF7 [15]): inactive
- Activity (MCF7 [16]): inactive
- Activity (MCF7 [17]): inactive
- Activity (MCF7 [18]): inactive
- Activity (MCF7 [19]): tde
- IC50 (MCF7 [3]): 40 nM
- Activity (MCF7 [20]): 10%
- Activity (MCF7 [21]): Active
- inhibition [22]: Active
- IC50 (U-937): 70 nM
- Activity (MCF7 [23]): tde
- IC50 (PC-3): 410 nM
- IC50 [2]: 1600 nM
- Activity (MCF7 [24]): Active
- Activity (MCF7 [25]): inactive

SMILES: CCOC(=O)[C@@H]1CS[C@@]2(C(=O)N(C)c3ccc(Br)cc32)N1C(=O)c1ccccc1
- IC50 (HT-29): 210 nM
- IC50 (MCF7 [3]): 310 nM

SMILES: CCOC(=O)[C@@H]1CS[C@]2(N1)C(=O)N(C(=O)c1ccc(Cl)cc1)c1ccccc12
- IC50 (HT-29): 1030 nM
- IC50 (MCF7 [3]): 1010 nM

SMILES: CCOC(=O)[C@@H]1CS[C@]2(N1)C(=O)N(C(=O)C1CCCCC1)c1ccc(Br)cc12
- IC50 (HT-29): 1400 nM

SMILES: CCOC(=O)[C@@H]1CS[C@@]2(C(=O)Nc3ccc(C)cc32)N1C(=O)Cc1ccc(Cl)cc1
- IC50 (HT-29): 780 nM
- IC50 (MCF7 [3]): 4810 nM

SMILES: CN1C(=O)[C@@]2(SC[C@@H](C(=O)O)N2C(=O)C2CCCCC2)c2cc(Br)ccc21 (mixture of isomers)
- IC50 (HT-29): 1900 nM
- IC50 (MCF7 [3]): 2010 nM

SMILES: CCOC(=O)[C@@H]1CS[C@@]2(C(=O)Nc3ccccc32)N1C(=O)Cc1ccc(Cl)cc1
- IC50 (HT-29): 1000 nM
- IC50 (MCF7 [3]): > 5000 nM

SMILES: COc1ccc(C2=N[C@@H](c3ccc(Cl)cc3)[C@@H](c3ccc(Cl)cc3)N2C(=O)N2CCNC(=O)C2)c(OC(C)C)c1 (relative stereo) [NUTLIN-3]
- IC50 [1]: 27200 nM
- IC50 (HepG2): 10200 nM
- IC50 [13]: 23000 nM
- IC50 (MCF7 [3]): 2900 nM
- IC50 (U-937): 15600 nM
- IC50 (PC-3): 30300 nM
- IC50 [2]: 1400 nM

SMILES: CCOC(=O)[C@@H]1CS[C@@]2(C(=O)N(C)c3ccc(Br)cc32)N1C(=O)Cc1ccc(Cl)cc1
- IC50 (HT-29): 360 nM
- IC50 (MCF7 [3]): 270 nM
